From article PMC7866232, “New Substituted 5-Benzylideno-2-Adamantylthiazol[3,2-b][1,2,4]Triazol-6(5H)ones as Possible Anti-Inflammatory Agents” (Molecules, 2021)

How the values were obtained:
[1] = test system: carrageenin-induced mouse paw edema; assay: Carrageenin-induced mouse paw edema (CPE), in vivo anti-inflammatory activity; details: for inhibition in vivo at 10 µmol/kg: Mus musculus, ip, mice, 0.01 mmol/kg body weight intraperitoneally, given simultaneously with carrageenin (2%, 0.05 mL)
Method: The in vivo anti-inflammatory effect of the tested compounds was assessed by using the functional model of carrageenin-induced mouse paw edema and is presented as the percentage of inhibition of induction of edema at the right hind paw (Table 1).
Edema was measured by weight increase of the right hind paw in comparison to the […] left paw.
Twenty-five thiazolo[3,2-b]1,2,4-triazole derivatives, previously synthesized were evaluated for their anti-inflammatory activity, in vivo using groups of 6–10 mice of R’’’ strain.
The anti-inflammatory activity of the compounds synthesized was studied with the Carragenin-Induced Paw Edema acute inflammation test using an aqueous carrageenin solution (2%, 0,05 mL), [14] which was injected intradermally in the footpad of the right hind limb muscle (mice R’’’ groups of 6–10 animals), whereas the left end serves as a reference. In the experimental procedure both sex male mice were used, excluding pregnant. Animals were fasted during the time of the experiment. The tested compounds (0.01 mmol/kg body weight), were suspended in water, with few drops of Tween 80 and ground in a mortar before use and were given intraperitoneally simultaneously with the carrageenin injection.

human recombinant COX-2 = target: T1, human recombinant COX-2 (Homo sapiens, UniProt P35354); assay: COX inhibitor screening assay in vitro, COX-2; assay type: biochemical; details: at 200 μM, 0.1 μM arachidonic acid; for inhibition at 200 µM: read-out: COX-2 (%) inhibition
T1 construct: purchased Cayman Chemical Co., Ann Arbor, MI, USA
T1 sequence (P35354 18-604): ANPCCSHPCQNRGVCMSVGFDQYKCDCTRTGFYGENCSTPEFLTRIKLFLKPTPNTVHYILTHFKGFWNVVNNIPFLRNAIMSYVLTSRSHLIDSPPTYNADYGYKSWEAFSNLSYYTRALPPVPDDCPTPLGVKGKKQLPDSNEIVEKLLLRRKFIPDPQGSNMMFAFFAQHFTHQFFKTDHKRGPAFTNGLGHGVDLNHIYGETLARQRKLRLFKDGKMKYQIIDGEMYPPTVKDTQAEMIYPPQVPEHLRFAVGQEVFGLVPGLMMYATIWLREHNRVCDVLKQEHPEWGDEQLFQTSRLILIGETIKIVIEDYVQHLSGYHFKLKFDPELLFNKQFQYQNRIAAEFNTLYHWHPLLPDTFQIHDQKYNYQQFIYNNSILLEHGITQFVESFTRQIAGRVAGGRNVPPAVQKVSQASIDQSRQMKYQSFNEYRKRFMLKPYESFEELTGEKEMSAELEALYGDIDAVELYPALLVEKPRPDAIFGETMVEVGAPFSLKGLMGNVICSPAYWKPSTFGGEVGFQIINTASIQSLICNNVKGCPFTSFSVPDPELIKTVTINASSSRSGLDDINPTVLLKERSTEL
Method: (§1) The COX-1 and COX-2 activities of the compounds were measured using ovine COX-1 and human recombinant COX-2 enzymes included in the “COX I inhibitor Screening Assay” kit provided by Cayman (Cayman Chemical Co., Ann Arbor, MI, USA). The assay directly measures PGF2 a produced by SnCl2 reduction of COX-derived PGH2. The prostanoid production was quantified via enzyme immunoassay using a broadly specific antibody that binds to all the major prostaglandin compounds. […]

ovine COX-1 = target: T2, ovine COX-1 (Ovis aries, UniProt P05979); assay: COX inhibitor screening assay in vitro, COX-1; assay type: biochemical; details: for inhibition at 200 µM: 0.1 μM arachidonic acid, read-out: COX-1 (%) inhibition
T2 construct: purchased Cayman Chemical Co., Ann Arbor, MI, USA
T2 sequence (P05979 25-600): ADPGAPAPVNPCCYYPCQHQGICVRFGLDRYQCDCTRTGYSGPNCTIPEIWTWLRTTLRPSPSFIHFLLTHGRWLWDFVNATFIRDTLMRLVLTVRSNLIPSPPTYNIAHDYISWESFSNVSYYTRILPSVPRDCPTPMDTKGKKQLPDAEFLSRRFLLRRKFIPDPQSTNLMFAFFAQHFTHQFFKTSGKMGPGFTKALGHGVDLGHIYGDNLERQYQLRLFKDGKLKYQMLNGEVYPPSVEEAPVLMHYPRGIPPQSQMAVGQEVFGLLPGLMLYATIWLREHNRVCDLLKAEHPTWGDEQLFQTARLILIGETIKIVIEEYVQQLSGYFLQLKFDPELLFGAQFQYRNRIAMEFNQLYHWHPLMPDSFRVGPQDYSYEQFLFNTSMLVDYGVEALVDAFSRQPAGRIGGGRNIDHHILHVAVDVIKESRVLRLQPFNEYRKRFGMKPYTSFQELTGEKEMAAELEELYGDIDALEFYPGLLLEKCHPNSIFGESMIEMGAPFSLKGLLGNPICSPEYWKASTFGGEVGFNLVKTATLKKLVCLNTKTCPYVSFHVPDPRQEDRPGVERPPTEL
Method: as §1

soybean lipoxygenase = target: T3, soybean lipoxygenase (Glycine max, UniProt P08170); assay: Soybean lipoxygenase inhibition in vitro; assay type: biochemical; details: 0.1 mM sodium linoleate, 234 nm
T3 sequence (P08170 1-839): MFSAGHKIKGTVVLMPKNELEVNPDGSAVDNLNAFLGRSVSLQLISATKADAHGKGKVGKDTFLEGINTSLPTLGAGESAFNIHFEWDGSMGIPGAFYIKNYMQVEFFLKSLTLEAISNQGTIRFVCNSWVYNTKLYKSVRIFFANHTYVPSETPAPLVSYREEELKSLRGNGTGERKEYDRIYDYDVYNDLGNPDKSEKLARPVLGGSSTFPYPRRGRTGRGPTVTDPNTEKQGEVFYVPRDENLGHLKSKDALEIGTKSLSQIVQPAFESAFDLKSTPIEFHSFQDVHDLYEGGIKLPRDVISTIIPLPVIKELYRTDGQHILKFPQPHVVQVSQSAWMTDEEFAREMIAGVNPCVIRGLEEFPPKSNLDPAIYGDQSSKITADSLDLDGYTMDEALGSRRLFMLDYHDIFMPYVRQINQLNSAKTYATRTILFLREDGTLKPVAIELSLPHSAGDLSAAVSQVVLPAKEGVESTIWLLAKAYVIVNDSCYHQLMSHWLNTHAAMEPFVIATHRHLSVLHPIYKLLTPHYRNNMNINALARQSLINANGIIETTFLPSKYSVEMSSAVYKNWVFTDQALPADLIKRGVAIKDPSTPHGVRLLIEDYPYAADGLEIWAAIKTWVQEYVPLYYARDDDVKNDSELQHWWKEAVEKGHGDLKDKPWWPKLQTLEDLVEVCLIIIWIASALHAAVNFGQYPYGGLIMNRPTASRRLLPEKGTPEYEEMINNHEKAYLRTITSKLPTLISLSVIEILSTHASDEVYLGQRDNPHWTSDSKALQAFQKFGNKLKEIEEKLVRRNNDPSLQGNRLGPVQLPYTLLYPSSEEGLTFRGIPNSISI
Method: The compounds tested were dissolved in DMSO and preincubated for 4 min at 28 °C in the presence of 753 U/mL 5-soybean lipoxygenase (5-LOX). The enzyme reaction was triggered by addition of a final concentration of 0.1 mM sodium linoleate. The conversion of sodium linoleate 13-hydrouperoxylinoleic acid was measured at 234 nm. Absorbance was measured at time 0 and 3 min.

`O=c1/c(=C/c2cccc(Cl)c2Cl)sc2nc(C34CC5CC(CC(C5)C3)C4)nn12` [Compound 23] gave an inhibition in vivo at 10 µmol/kg [1] of 37%, an inhibition at 200 µM (human recombinant COX-2) of 20% and an inhibition at 200 µM (ovine COX-1) of 46%. For the same compound, the “LOX (%) inhibition” value (soybean lipoxygenase) was 11.43%.

`COc1ccc(/C=c2\sc3nc(C45CC6CC(CC(C6)C4)C5)nn3c2=O)cc1` [Compound 8] was tested, and the inhibition in vivo at 10 µmol/kg [1] was 51 to 67%, the “increased anti-inflammatory activity compared to indomethacin” value ([1]; carrageenin paw edema, relative to indomethacin) was 32% and the “COX-2 (%) inhibition” value (human recombinant COX-2) was “completely inactive”. The inhibition at 200 µM (human recombinant COX-2) was 0%, the IC50 (ovine COX-1) was 41.9 µM and the inhibition at 200 µM (ovine COX-1) was 60.5%. The “LOX (%) inhibition” value (soybean lipoxygenase) was 5.72%.

Work on `O=c1/c(=C/c2cccc(F)c2)sc2nc(C34CC5CC(CC(C5)C3)C4)nn12` [Compound 15] yielded an inhibition in vivo at 10 µmol/kg [1] of 51 to 67%, an inhibition at 200 µM (human recombinant COX-2) of 23% and an inhibition at 200 µM (ovine COX-1) of 36%. For the same compound, the “LOX (%) inhibition” value (soybean lipoxygenase) was 27.15%.

In the case of `O=c1/c(=C/c2cccc(Cl)c2)sc2nc(C34CC5CC(CC(C5)C3)C4)nn12` [Compound 21], the inhibition in vivo at 10 µmol/kg [1] is reported as 40 to 49%.

With `O=c1/c(=C/c2c(Cl)cccc2Cl)sc2nc(C34CC5CC(CC(C5)C3)C4)nn12` [Compound 25] the inhibition in vivo at 10 µmol/kg [1] was 32%.

`CN(C)c1ccc(/C=c2\sc3nc(C45CC6CC(CC(C6)C4)C5)nn3c2=O)cc1` [Compound 11] showed an inhibition in vivo at 10 µmol/kg [1] of 51 to 67%.

Work on `O=c1/c(=C/c2ccc(Cl)cc2Cl)sc2nc(C34CC5CC(CC(C5)C3)C4)nn12` [Compound 24] yielded an inhibition in vivo at 10 µmol/kg [1] of 37%.

Compound `O=c1/c(=C/c2ccccc2Br)sc2nc(C34CC5CC(CC(C5)C3)C4)nn12` [Compound 17] has an inhibition in vivo at 10 µmol/kg [1] of 51 to 67%, an inhibition at 200 µM (human recombinant COX-2) of 0% and an inhibition at 200 µM (ovine COX-1) of 16%. For the same compound, the “LOX (%) inhibition” value (soybean lipoxygenase) was 17.15%.

For `O=c1/c(=C/c2ccccc2[N+](=O)[O-])sc2nc(C34CC5CC(CC(C5)C3)C4)nn12` [Compound 12], the inhibition in vivo at 10 µmol/kg [1] was 40 to 49%.

Work on `COc1cc(/C=c2\sc3nc(C45CC6CC(CC(C6)C4)C5)nn3c2=O)cc(OC)c1O` [Compound 7] yielded an inhibition in vivo at 10 µmol/kg [1] of 36%, an inhibition at 200 µM (human recombinant COX-2) of 25% and an inhibition at 200 µM (ovine COX-1) of 22%. For the same compound, the “LOX (%) inhibition” value (soybean lipoxygenase) was 16.13%.

In the case of `O=c1/c(=C/c2ccc(Cl)cc2)sc2nc(C34CC5CC(CC(C5)C3)C4)nn12` [Compound 22], the inhibition in vivo at 10 µmol/kg [1] is reported as 51 to 67%.

`O=c1/c(=C/c2ccccc2)sc2nc(C34CC5CC(CC(C5)C3)C4)nn12` [Compound 1] showed an inhibition in vivo at 10 µmol/kg [1] of 40 to 49%.

With `O=c1/c(=C/c2cccc([N+](=O)[O-])c2)sc2nc(C34CC5CC(CC(C5)C3)C4)nn12` [Compound 13] the inhibition in vivo at 10 µmol/kg [1] was 15%.
